We go through 1 compound from ChEMBL document CHEMBL1158862, “Insect Toxins from an Endophytic Fungus from Wintergreen” (J Nat Prod, 1997).

This data set is described as follows: Toxicity in spruce budworm larvae assessed as mortality at 0.8 umol. It is filed as organism-based. The note with it: choristoneura fumiferana, in vivo, read-out: Activity.

As for `CC(C)=CCCC(=O)c1cc2cc(O)ccc2o1`, the mortality came out at 36%.
